Laboratory results taken from patent US20070161592A1, “Method of treating fear” (priority 2005, published 2007).
“Also recorded” adds a separate entry of the source.

How the values were obtained:
NR2B-mediated NMDA EPSCs = NR2B-mediated NMDA EPSCs in neurons from siRNA electroporated ACC slices; assay type: cell-based, mouse; details: Ro25-6981-sensitive component, control slices 12.6±2.6%
Method: Experiments were performed in a recording chamber on the stage of an Axioskop 2FS microscope with infrared DIC optics for visualizing whole-cell patch clamp recordings. EPSCs were recorded from layer II-III neurons using an Axon 200B amplifier (Axon Instruments, CA) and stimulations were delivered using a bipolar tungsten stimulating electrode placed in layer V of the ACC. In hippocampal slices, EPSCs were evoked by stimulating the Schaffer collateral-commissural pathway. EPSCs were induced by repetitive stimulations at 0.02 Hz and neurons were voltage clamped at −70 mV. The recording pipettes (3-5 MΩ) were filled with solution containing (mM) 145 K-gluconate, 5 NaCl, 1 MgCl2, 0.2 EGTA, 10 HEPES, 2 Mg-ATP, and 0.1 Na3-GTP (adjusted to pH 7.2 with KOH). After obtaining stable EPSCs for 10 min, three kinds of LTP induction paradigms were used within 12 min after establishing the whole-cell configuration to prevent wash out effect on LTP induction (Tsvetkov et al., 2002). The first protocol involved paired presynaptic 80 pulses at 2 Hz with postsynaptic depolarization at +30 mV (referred to as pairing training). […] The access resistance was 15-30 MΩ and was monitored throughout the experiment. […] Results are expressed as means±SEM. […]
NMDAR-mediated EPSCs were also recorded in neurons from electroporated ACC slices.

C57BL/6 male mice = test: Mouse fear conditioning (contextual and auditory fear memory, freezing); assay type: in vivo
Method: siRNA corresponding to NR2B (sense 5′-GGAUGAGUCCUCCAUGUUCtt-3′ and antisense 5′-GAACAUGGAGGACUCAUCCtt-3′, Silencer Pre-designed siRNA, ID #61879, Ambion, Tex.) was delivered into the ACC by microelectroporation, which was performed as described previously (Wei et al., 2003). Briefly, 0.5 μl of 1:4 mixture of siRNA (2.5 μg/μl) and pEGFP-N1 (1 μg/μl) was injected into the ACC (0.7 mm anterior to Bregma, ±0.4 mm lateral from the midline, 1.8 mm beneath the surface of the skull) (Franklin and Paxinos, 1997) through a 30-gauge injection cannula. Then, square-wave electric pulses (five pulses at 1 Hz, 50 ms duration at 40 V) were delivered through a pair of silver electrodes placed 2 mm anterior and 1 mm posterior to the injection site using a S48 Stimulator (Grass Instruments). Control groups consisted of a group receiving only the electroporation shock, pEGFP-N1, or Silencer Negative control siRNA (#4611, Ambion) and pEGFP-N1. Western blot analysis was performed 4 days after electroporation and electrophysiological recordings were taken 2-4 days after.
Under ketamine and xylazine anesthesia, 24-guage guide cannulas were implanted bilaterally into the ACC (0.7 mm anterior to Bregma, ±0.4 mm lateral from the midline, 1.7 mm beneath the surface of the skull) or dorsal hippocampus (2.0 mm posterior to Bregma, ±1.5 mm lateral from the midline, 1.9 mm beneath the surface of the skull). Mice were given at least 2 weeks to recover after cannula implantation. All procedures were performed in accordance with the requirements of the Animal Studies Committee at the University of Toronto. The 30-gauge injection cannula was 0.1 mm lower than the guide. For intra-ACC infusion, 0.5 μl Ro25-6981 (4 μg/μl) or saline was delivered bilaterally within 90 s using a pump. 15 min later mice were conditioned by one pairing of a tone (2.8 kHz, 85 dB, 30 s) and a foot shock (0.75 mA, 2 s) that terminated at the same time as the tone. For intra-hippocampal infusion, 0.5 μl Ro25-6981 (10 μg/μl) or saline was delivered bilaterally within 90 s. 15 min later mice received one pairing of a tone and a foot shock, as above. One day later, animals were exposed to the conditioning context without a tone for 3 min and freezing responses were scored automatically (Freeze view software, Actrimetrics, Wilmette, Ill.).
NR2B subunit inhibition in adult mice was examined to determine whether this impairs the formation of contextual fear memory. Three days after bilateral siRNA electroporation, mice were trained (or conditioned) and then tested for contextual fear memory by assessing freezing behavior in the same environmental context after 24 hours. There was no difference in baseline freezing or in freezing immediately following the shock/tone pairing between groups; however, there was a significant difference between groups when tested in the contextual environment one day later (n=8 for EGFP only; n=10 for control siRNA; n=8 for shock only; n=11 for NR2B siRNA; one-way ANOVA, p=0.005; FIG. 8C). […] Since the activation of NR2B was suppressed throughout the training and memory test, the roles of NR2B during the acquisition and retrieval of fear memory cannot be distinguished. Recently, electric stimulation of the ACC was reported to induce fear memory one and three days after stimulation (Tang et al., 2005), which implies that the ACC may be involved in the acquisition of fear memory. To directly address this issue, the effect of NR2B blockade using Ro25-6981 was examined. […] In order to rule out any locomotor side-effects, locomotor activity in the open field was tested after bilateral ACC microinjection of Ro25-6981 (n=4) or vehicle (n=4).

[1] = mice, 5 μg in 0.5 μl bilaterally into dorsal hippocampi, tested one day after training

Compound | NR2B-mediated NMDA EPSCs, % of total NMDAR-mediated current (NR2B-mediated NMDA EPSCs) | baseline freezing or freezing immediately following the shock/tone pairing (C57BL/6 male mice; bilateral siRNA electroporation into ACC) | contextual fear memory (freezing in the contextual environment) (C57BL/6 male mice; bilateral siRNA electroporation into ACC, trained three days later, tested after 24 hours) | auditory fear memory (C57BL/6 male mice; mice, 2 μg in 0.5 μl per side into the bilateral ACC) | auditory fear memory (C57BL/6 male mice; [1]) | contextual fear memory (C57BL/6 male mice; [1]) | baseline or immediate freezing behavior (C57BL/6 male mice; mice, ACC microinjection) | baseline or immediate freezing behavior (C57BL/6 male mice; mice, hippocampal microinjection) | contextual fear memory (freezing in the contextual environment) (C57BL/6 male mice; mice, microinjection 2 μg in 0.5 μl per side into the bilateral ACC before conditioning)
NR2B siRNA: siRNA corresponding to NR2B, sense 5′-GGAUGAGUCCUCCAUGUUCtt-3′, antisense 5′-GAACAUGGAGGACUCAUCCtt-3′, Silencer Pre-designed siRNA ID #61879, Ambion (sense GGAUGAGUCCUCCAUGUUCTT; antisense GAACAUGGAGGACUCAUCCTT; chemistry not given here) | 7.3±0.7% | no difference | impaired contextual fear memory; also recorded: significantly less freezing |  |  |  |  |  | 
C[C@@H](CN1CCC(Cc2ccccc2)CC1)[C@@H](O)c1ccc(O)cc1 [Ro25-6981] |  |  |  | no difference in auditory fear memory | did not affect | did not impair contextual fear memory; also recorded: did not affect | did not significantly affect | did not significantly affect | decreased contextual fear memory; also recorded: significant reduction in freezing
